Experimental findings from ChEMBL document CHEMBL3706496, “Therapeutic Drugs” (1999) are described below.

Type in all cases: ADME, organism-based
A short description of data set [1]: Percentage of administered dose recovered as monocarboxylic acid derivative of mitoxantrone in urine within 48 h of drug administration. Details: dosed compound id 2.58283e+06, dosed compound name Mitoxantrone. The conditions noted are these: human, in vivo.
The nature of data set [2]: Percentage of administered dose recovered as dicarboxylic acid derivative of mitoxantrone in urine within 48 h of drug administration. The conditions noted are these: human, in vivo.
A short description of data set [3]: Percentage of administered dose recovered as idarubicinol in urine after intravenous administration. Also noted: dosed compound id 2.58283e+06, dosed compound name Idarubicin, route intravenous. The conditions noted are these: human, in vivo.
Data set [4] is described as follows: Percentage of administered dose recovered as idarubicinol in urine after oral administration. The conditions noted are these: human, in vivo. Also noted: dosed compound id 2.58283e+06, dosed compound name Idarubicin, route oral.
Data set [5] can be described thus: Percentage of administered dose recovered as unchanged drug in urine after intravenous administration. Also noted: dosed compound id 2.58283e+06, dosed compound name Idarubicin, route intravenous. The conditions noted are these: human, read-out: Compound recovery.
Data set [6] can be described thus: Percentage of administered dose recovered as unchanged drug in urine after oral administration. Details: dosed compound id 2.58283e+06, dosed compound name Idarubicin, route oral. The conditions noted are these: human, read-out: Compound recovery.
Data set [7] in a line: Percentage of administered dose recovered as unchanged drug in urine within 48 h of drug administration. Also noted: dosed compound id 2.58283e+06, dosed compound name Mitoxantrone. The conditions noted are these: human, read-out: Compound recovery.

Each structure is given as a SMILES string.

As for `O=C(O)CNCCNc1ccc(NCCNCCO)c2c1C(=O)c1c(O)ccc(O)c1C2=O`, the Compound recovery in data set [1] stood at 0.5%.

For the compound `O=C(O)CNCCNc1ccc(NCCNCC(=O)O)c2c1C(=O)c1c(O)ccc(O)c1C2=O`, the Compound recovery in data set [2] is given as 0.3%.

As for `CC(O)[C@]1(O)Cc2c(O)c3c(c(O)c2[C@@H](O[C@H]2C[C@H](N)[C@H](O)[C@H](C)O2)C1)C(=O)c1ccccc1C3=O` (some centres not stated), the Compound recovery in data set [3] came out at 15%; in data set [4] it was 5%.

`CC(=O)[C@]1(O)Cc2c(O)c3c(c(O)c2[C@@H](O[C@H]2C[C@H](N)[C@H](O)[C@H](C)O2)C1)C(=O)c1ccccc1C3=O` [IDARUBICIN]: the results for the dose excreted in data set [5] and in data set [6] were 2% and 0.6%, respectively.

For the compound `O=C1c2c(O)ccc(O)c2C(=O)c2c(NCCNCCO)ccc(NCCNCCO)c21` [MITOXANTRONE], in data set [7], the dose excreted at 48 h was 4.4%.
